Here are results for 25 compounds from patent US20240254103A9, “NOVEL PYRIMIDINE DERIVATIVE, AND COMPOSITION FOR PREVENTING OR TREATING NEURODEGENERATIVE DISEASES AND CANCER, COMPRISING SAME” (WHAN IN PHARMACEUTICAL CO., LTD., priority 2020, published 2024).

The target in one assay is T1, wild-type LRRK2 (Homo sapiens, UniProt Q5S007).
T1 construct: DNA tag for qPCR detection (not a peptide; the protein part that carries it is not described); made in house; host or cells: HEK 293 cells (the same paragraph also describes T7 phage grown in E. coli BL21)
Nature of the assay: Inhibitory activity against LRRK2: competition binding to ligand-affinity beads, DNA-tagged kinase quantitated by qPCR. The conditions noted are these: % of ctrl; for remaining binding at 0.1 µM: 100 nM compound, read-out: Remaining kinase activity(%) at 100 nM LRRK2(WT); for remaining binding at 0.01 µM: 10 nM compound, read-out: LRRK2(WT) Remaining kinase activity(%) at 10 nM; for remaining binding at 0.05 µM: 50 nM compound, read-out: LRRK2(WT) Remaining kinase activity(%) at 50 nM. The gist of the method: (§1)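 Human LRRK2 H970–E2527, wild type or G2019S, was expressed as DNA-tagged kinase (T7 phage in E. coli or HEK293) and competed for 1 h against a biotinylated ligand on streptavidin beads. Bound kinase was eluted with 0.5 µM free ligand and quantified by qPCR. Values are % of control at 100 nM (both forms) and at 10 and 50 nM (wild type).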
A general note: Quantitative PCR measures a nucleic acid by following its amplification.

For the next assay, the target named is T2, mutant LRRK2 (G2019S) (Homo sapiens, UniProt Q5S007, G2019S).
T2 construct: DNA tag for qPCR detection (not a peptide; the protein part that carries it is not described); made in house; host or cells: HEK 293 cells (the same paragraph also describes T7 phage grown in E. coli BL21)
The assay is described as above. Conditions: 100 nM compound; % of ctrl; read-out: Remaining kinase activity(%) at 100 nM LRRK2(G2019Smutant). In short, it runs like this:
as §1

T1 sequence (Q5S007 970-2527): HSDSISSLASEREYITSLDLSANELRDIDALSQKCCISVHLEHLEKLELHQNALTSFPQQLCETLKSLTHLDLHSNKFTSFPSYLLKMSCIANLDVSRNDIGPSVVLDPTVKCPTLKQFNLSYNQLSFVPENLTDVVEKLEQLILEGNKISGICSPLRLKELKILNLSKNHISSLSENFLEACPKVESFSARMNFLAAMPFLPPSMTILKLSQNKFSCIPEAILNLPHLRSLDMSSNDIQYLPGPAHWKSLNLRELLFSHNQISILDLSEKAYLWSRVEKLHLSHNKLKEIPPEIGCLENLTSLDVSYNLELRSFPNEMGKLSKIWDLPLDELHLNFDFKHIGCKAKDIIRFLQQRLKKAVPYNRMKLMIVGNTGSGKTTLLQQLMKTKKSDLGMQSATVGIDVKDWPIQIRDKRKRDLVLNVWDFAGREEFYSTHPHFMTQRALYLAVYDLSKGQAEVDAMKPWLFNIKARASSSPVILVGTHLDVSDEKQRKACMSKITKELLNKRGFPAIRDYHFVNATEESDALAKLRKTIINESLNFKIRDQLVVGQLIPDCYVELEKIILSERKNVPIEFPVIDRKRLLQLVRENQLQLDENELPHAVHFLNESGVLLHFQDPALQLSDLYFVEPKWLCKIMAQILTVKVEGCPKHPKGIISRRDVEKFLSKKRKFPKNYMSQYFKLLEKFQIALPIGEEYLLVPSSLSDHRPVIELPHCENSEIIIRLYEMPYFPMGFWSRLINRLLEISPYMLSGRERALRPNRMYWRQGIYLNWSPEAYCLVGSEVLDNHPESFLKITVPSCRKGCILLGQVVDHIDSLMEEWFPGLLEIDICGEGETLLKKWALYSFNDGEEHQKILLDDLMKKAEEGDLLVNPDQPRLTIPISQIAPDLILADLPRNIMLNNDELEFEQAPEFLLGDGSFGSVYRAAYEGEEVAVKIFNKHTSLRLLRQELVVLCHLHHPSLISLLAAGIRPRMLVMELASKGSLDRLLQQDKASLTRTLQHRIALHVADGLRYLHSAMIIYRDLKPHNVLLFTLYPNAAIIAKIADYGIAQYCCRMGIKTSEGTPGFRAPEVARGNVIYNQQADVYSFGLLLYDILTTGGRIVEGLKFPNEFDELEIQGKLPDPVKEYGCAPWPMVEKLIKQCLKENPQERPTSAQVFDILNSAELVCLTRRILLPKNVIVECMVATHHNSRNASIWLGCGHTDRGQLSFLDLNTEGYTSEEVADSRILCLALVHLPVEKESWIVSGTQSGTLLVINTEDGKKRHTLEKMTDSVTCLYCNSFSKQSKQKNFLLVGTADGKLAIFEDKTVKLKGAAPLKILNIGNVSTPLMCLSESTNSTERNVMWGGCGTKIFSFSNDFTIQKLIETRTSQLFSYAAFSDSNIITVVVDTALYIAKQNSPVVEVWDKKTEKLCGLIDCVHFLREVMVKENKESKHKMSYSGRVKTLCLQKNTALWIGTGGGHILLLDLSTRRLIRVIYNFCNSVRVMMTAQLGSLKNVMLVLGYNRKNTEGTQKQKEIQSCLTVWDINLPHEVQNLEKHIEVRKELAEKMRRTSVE
T2 sequence (Q5S007 970-2527 G2019S): as the sequence (Q5S007 970-2527) above, with G1050S counted along it

Turning to `COc1cc(C(=O)N2CCOCC2)ccc1Nc1ncc(Cl)c(-c2ccccc2)n1` [Comparative Compound 1, (4-((5-chloro-4-phenylpyrimidin-2-yl)amino)-3-methoxyphenyl)(morpholino)methanone, reference compound], the remaining binding at 0.1 µM at wild-type LRRK2 and at mutant LRRK2 (G2019S) was no less than 50% throughout.
As for `COc1cc(C(=O)N2CCOCC2)ccc1Nc1ncc(Cl)c(-c2cccnc2)n1` [Comparative Compound 2, (4-((5-chloro-4-(pyridin-3-yl)pyrimidin-2-yl)amino)-3-methoxyphenyl) (morpholino)methanone, reference compound], the remaining binding at 0.1 µM on wild-type LRRK2 and on mutant LRRK2 (G2019S) was no less than 50% each time.
For `COc1cc(C(=O)N2CCOCC2)ccc1Nc1ncc(Cl)c(-c2cccc([N+](=O)[O-])c2)n1` [Comparative Compound 3, (4-((5-chloro-4-(3-nitrophenyl)pyrimidin-2-yl)amino) -3-methoxyphenyl)(morpholino)methanone, reference compound], the remaining binding at 0.1 µM on wild-type LRRK2 and on mutant LRRK2 (G2019S) was no less than 50% each time.
As for `COc1cc(C(=O)N2CCOCC2)ccc1Nc1ncc(Cl)c(-c2cnn(C)c2)n1` [Compound 1, (4-((5-chloro-4-(1-methyl-1H-pyrazol-4-yl)pyrimidin-2-yl)amino)-3-methoxyphenyl)(morpholino)methanone], the remaining binding at 0.1 µM at wild-type LRRK2 and on mutant LRRK2 (G2019S) was less than 30% in each case.
With `COc1cc(C(=O)N2CCC(N3CCOCC3)CC2)ccc1Nc1ncc(Cl)c(-c2cnn(C)c2)n1` [Compound 2, (4-((5-chloro-4-(1-methyl-1H-pyrazol-4-yl)pyrimidin-2-yl)amino)-3-methoxyphenyl) (4-morpholinopiperidin-1-yl)methanone], the remaining binding at 0.1 µM on wild-type LRRK2 and on mutant LRRK2 (G2019S) was less than 10% throughout.
With `COc1cc(C(=O)N2CCOCC2)ccc1Nc1ncc(Cl)c(-c2cnn(CCO)c2)n1` [Compound 4, (4-((5-chloro-4-(1-(2-hydroxyethyl)-1H-pyrazol-4-yl)pyrimidin-2-yl)amino)-3-methoxyphenyl)(morpholino)methanone], the remaining binding at 0.1 µM on wild-type LRRK2 and at mutant LRRK2 (G2019S) was less than 30% throughout.
As to `COc1cc(C(=O)N2CCOCC2)ccc1Nc1ncc(Cl)c(-c2cnn(CCC#N)c2)n1` [Compound 5, 3-(4-(5-chloro-2-((2-methoxy-4-(morpholine-4-carbonyl)phenyl)amino)pyrimidin-4-yl)-1H-pyrazol-1-yl)propanenitrile], the remaining binding at 0.1 µM at wild-type LRRK2 and on mutant LRRK2 (G2019S) was less than 10% each time.
`COc1cc(C(=O)N2CCOCC2)ccc1Nc1ncc(Cl)c(-c2cnn(CC#N)c2)n1` [Compound 6, 2-(4-(5-chloro-2-((2-methoxy-4-(morpholine-4-carbonyl)phenyl)amino)pyrimidin-4-yl)-1H-pyrazol-1-yl)acetonitrile]: the remaining binding at 0.1 µM was less than 50% at wild-type LRRK2 and less than 30% on mutant LRRK2 (G2019S).
The like results for `COc1cc(C(=O)N2CCOCC2)ccc1Nc1ncc(Cl)c(-c2cnn(C(C)CC#N)c2)n1` (centres unmarked) [Compound 7, 3-(4-(5-chloro-2-((2-methoxy-4-(morpholine-4-carbonyl)phenyl)amino)pyrimidin-4-yl)-1H-pyrazol-1-yl)butanenitrile] were, in that order, less than 10% and less than 10%.
Turning to `COc1cc(C(=O)NCc2ccc(N)cc2)ccc1Nc1ncc(Cl)c(-c2cnn(C(C)C)c2)n1` [Compound 183, N-(4-aminobenzyl)-4-((5-chloro-4-(1-isopropyl-1H-pyrazol-4-yl)pyrimidin-2-yl)amino)-3-methoxybenzamide], on wild-type LRRK2, the remaining binding at 0.01 µM is no less than 50% and the remaining binding at 0.05 µM was less than 30%.
For `COc1cc(C(=O)NCc2ccc(S(N)(=O)=O)cc2)ccc1Nc1ncc(Cl)c(-c2cnn(C(C)C)c2)n1` [Compound 189, 4-((5-chloro-4-(1-isopropyl-1H-pyrazol-4-yl)pyrimidin-2-yl)amino)-3-methoxy-N-(4-sulfamoylbenzyl)benzamide] the same measures were no less than 50% and less than 50%.
The like results for `COc1cc(C(=O)Nc2cccc(NS(C)(=O)=O)c2)ccc1Nc1ncc(Cl)c(-c2cnn(C(C)C)c2)n1` [Compound 190, 4-((5-chloro-4-(1-isopropyl-1H-pyrazol-4-yl)pyrimidin-2-yl)amino)-3-methoxy-N-(3-(methylsulfonamido)phenyl)benzamide] were, in that order, no less than 50% and less than 50%.
The like results for `COc1cc(C(=O)Nc2cccc(S(N)(=O)=O)c2)ccc1Nc1ncc(Cl)c(-c2cnn(C(C)C)c2)n1` [Compound 191, 4-((5-chloro-4-(1-isopropyl-1H-pyrazol-4-yl)pyrimidin-2-yl)amino)-3-methoxy-N-(3-sulfamoylphenyl)benzamide] were, in that order, no less than 50% and less than 30%.
For the compound `COc1cc(C(=O)NCCS(C)(=O)=O)ccc1Nc1ncc(Cl)c(-c2cnn(C(C)C)c2)n1` [Compound 192, 4-((5-chloro-4-(1-isopropyl-1H-pyrazol-4-yl)pyrimidin-2-yl)amino)-3-methoxy-N-(2-(methylsulfonyl)ethyl)benzamide], on wild-type LRRK2, the remaining binding at 0.01 µM is no less than 50% and the remaining binding at 0.05 µM was less than 30%.
`COc1cc(C(=O)NCCCn2ccnc2)ccc1Nc1ncc(Cl)c(-c2cnn(C(C)C)c2)n1` [Compound 197, N-(3-(1H-imidazol-1-yl)propyl)-4-((5-chloro-4-(1-isopropyl-1H-pyrazol-4-yl)pyrimidin-2-yl)amino)-3-methoxybenzamide]: on wild-type LRRK2, the remaining binding at 0.01 µM was no less than 50% and the remaining binding at 0.05 µM was less than 50%.
For `COc1cc(C(=O)NCC(OC)OC)ccc1Nc1ncc(Cl)c(-c2cnn(C(C)C)c2)n1` [Compound 198, 4-((5-chloro-4-(1-isopropyl-1H-pyrazol-4-yl)pyrimidin-2-yl)amino)-N-(2,2-dimethoxyethyl)-3-methoxybenzamide] the same measures were no less than 50% and less than 50%.
The like results for `COC(=O)[C@@H]1CCCN1C(=O)c1ccc(Nc2ncc(Cl)c(-c3cnn(C(C)C)c3)n2)c(OC)c1` [Compound 200, methyl (4-((5-chloro-4-(1-isopropyl-1H-pyrazol-4-yl)pyrimidin-2-yl)amino)-3-methoxybenzoyl)-L-prolinate] were, in that order, no less than 50% and less than 50%.
`CCN(C)C(=O)c1ccc(Nc2ncc(Cl)c(-c3cnn(C(C)C)c3)n2)c(OC)c1` [Compound 202, 4-((5-chloro-4-(1-isopropyl-1H-pyrazol-4-yl)pyrimidin-2-yl)amino)-N-ethyl-3-methoxy-N-methylbenzamide]: at wild-type LRRK2, the remaining binding at 0.01 µM is no less than 50% and the remaining binding at 0.05 µM was less than 50%.
The like results for `COc1ccc(CNC(=O)c2ccc(Nc3ncc(Cl)c(-c4cnn(C(C)C)c4)n3)c(OC)c2)cc1` [Compound 203, 4-((5-chloro-4-(1-isopropyl-1H-pyrazol-4-yl)pyrimidin-2-yl)amino)-3-methoxy-N-(4-methoxybenzyl)benzamide] were, in that order, no less than 50% and less than 50%.
For `COc1cc(C(=O)Nc2cc(C)c(OC)c(C)c2)ccc1Nc1ncc(Cl)c(-c2cnn(C(C)C)c2)n1` [Compound 204, 4-((5-chloro-4-(1-isopropyl-1H-pyrazol-4-yl)pyrimidin-2-yl)amino)-3-methoxy-N-(4-methoxy-3,5-dimethylphenyl)benzamide] the same measures were no less than 50% and less than 50%.
For `COc1cc(C(=O)NCc2cccc(N)c2)ccc1Nc1ncc(Cl)c(-c2cnn(C(C)C)c2)n1` [Compound 205, N-(3-aminobenzyl)-4-((5-chloro-4-(1-isopropyl-1H-pyrazol-4-yl)pyrimidin-2-yl)amino)-3-methoxybenzamide] the same measures were no less than 50% and less than 50%.
For the compound `CCN(C)C1CCN(C(=O)c2ccc(Nc3ncc(Cl)c(-c4cnn(C(C)C)c4)n3)c(OC)c2)CC1` [Compound 210, (4-((5-chloro-4-(1-isopropyl-1H-pyrazol-4-yl)pyrimidin-2-yl)amino)-3-methoxyphenyl)(4-(ethyl(methyl)amino)piperidin-1-yl)methanone], on wild-type LRRK2, the remaining binding at 0.01 µM was less than 50% and the remaining binding at 0.05 µM was less than 10%.
For `COc1cc(C(=O)Nc2ccc3c(c2)CCN3C(C)=O)ccc1Nc1ncc(Cl)c(-c2cnn(C(C)C)c2)n1` [Compound 212, N-(1-acetylindolin-5-yl)-4-((5-chloro-4-(1-isopropyl-1H-pyrazol-4-yl)pyrimidin-2-yl)amino)-3-methoxybenzamide] the same measures were no less than 50% and less than 50%.
The like results for `COc1cc(C(=O)N2CCC(N3CCCC3)CC2)ccc1Nc1ncc(Cl)c(-c2cnn(C(C)C)c2)n1` [Compound 216, (4-((5-chloro-4-(1-isopropyl-1H-pyrazol-4-yl)pyrimidin-2-yl)amino)-3-methoxyphenyl)(4-(pyrrolidin-1-yl)piperidin-1-yl)methanone] were, in that order, less than 50% and less than 10%.
As for `COc1cc(C(=O)N2CCC(N3CCCCC3)CC2)ccc1Nc1ncc(Cl)c(-c2cnn(C(C)C)c2)n1` [Compound 217, [1,4′-bipiperidin]-1′-yl(4-((5-chloro-4-(1-isopropyl-1H-pyrazol-4-yl)pyrimidin-2-yl)amino)-3-methoxyphenyl)methanone], on wild-type LRRK2, the remaining binding at 0.01 µM was less than 30% and the remaining binding at 0.05 µM is less than 10%.
